From ChEMBL document CHEMBL1201862, “PubChem BioAssay data set” (2004)
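These data come from cells grown in 96-well plates and exposed to compound for 48 hours at five concentrations. GI50 = concentration required for 50% inhibition of growth.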 Active and inactive are the calls of the source. Rule as the data show it: active = GI50 up to about 1.1 µM and inactive = higher.

Experiments:
Assay in all cases: inhibition of tumour cell growth, NCI panel, 48 h
SN12C = system: SN12C
K562 = system: K562
TK-10 = system: TK-10
Hs-578T = system: Hs-578T
Malme-3M = system: Malme-3M
SF-539 = system: SF-539
A498 = system: A498
SK-MEL-28 = system: SK-MEL-28
HOP-92 = system: HOP-92
SNB-19 = system: SNB-19
OVCAR-5 = system: OVCAR-5
M14 = system: M14
DU-145 = system: DU-145
NCI-H522 = system: NCI-H522
COLO 205 = system: COLO 205
HT-29 = system: HT-29
BT-549 = system: BT-549
HOP-62 = system: HOP-62
IGROV-1 = system: IGROV-1
EKVX = system: EKVX

| Compound | GI50 (SN12C) | GI50 (K562) | GI50 (TK-10) | GI50 (Hs-578T) | GI50 (Malme-3M) | GI50 (SF-539) | GI50 (A498) | GI50 (SK-MEL-28) | GI50 (HOP-92) | GI50 (SNB-19) | GI50 (OVCAR-5) | GI50 (M14) | GI50 (DU-145) | GI50 (NCI-H522) | GI50 (COLO 205) | GI50 (HT-29) | GI50 (BT-549) | GI50 (HOP-62) | GI50 (IGROV-1) | GI50 (EKVX) |
| --- | --- | --- | --- | --- | --- | --- | --- | --- | --- | --- | --- | --- | --- | --- | --- | --- | --- | --- | --- | --- |
| COC(=O)n1c(=O)nc2c3c(ncn21)Oc1c(c(-c2ccccc2)nn1-c1ccccc1)C3c1ccc(Cl)cc1 (stereo not drawn) | 1.73 µM (inactive) | 1.62 µM (inactive) | 1.79 µM (inactive) | 1.17 µM (inactive) | 1.04 µM (active) | 1.76 µM (inactive) | 2.03 µM (inactive) | 1.79 µM (inactive) | 1.71 µM (inactive) | 1.75 µM (inactive) | 1.32 µM (inactive) | 1.44 µM (inactive) | 1.63 µM (inactive) | 1.5 µM (inactive) | 1.45 µM (inactive) | 1.56 µM (inactive) | 3.87 µM (inactive) | 1.72 µM (inactive) | – | – |
| CC(=O)Nc1ncc2c(n1)-c1ccccc1OC2 | > 100 µM (inactive) | – | > 100 µM (inactive) | 19.5 µM (inactive) | – | > 100 µM (inactive) | > 100 µM (inactive) | – | > 100 µM (inactive) | > 100 µM (inactive) | > 100 µM (inactive) | > 100 µM (inactive) | > 100 µM (inactive) | > 100 µM (inactive) | > 100 µM (inactive) | > 100 µM (inactive) | > 100 µM (inactive) | – | > 100 µM (inactive) | > 100 µM (inactive) |
| Cc1ccc2c(c1)[nH]c(=S)n2/C=C1\C(=O)Oc2ccccc2C1=O | 59.4 µM (inactive) | 52.2 µM (inactive) | > 100 µM (inactive) | 25.5 µM (inactive) | 34.6 µM (inactive) | 69.7 µM (inactive) | 49.1 µM (inactive) | 47.3 µM (inactive) | 39 µM (inactive) | 86.5 µM (inactive) | > 100 µM (inactive) | 39.8 µM (inactive) | 41.3 µM (inactive) | 38.7 µM (inactive) | 99.3 µM (inactive) | 57.5 µM (inactive) | 45.7 µM (inactive) | 51.3 µM (inactive) | 39 µM (inactive) | – |
| O=C(/C=C/c1ccc(O)c(O)c1)OCC(OC(=O)/C=C/c1ccc(O)c(O)c1)C(=O)O (stereo not drawn) | > 100 µM (inactive) | > 100 µM (inactive) | > 100 µM (inactive) | > 100 µM (inactive) | – | > 100 µM (inactive) | > 100 µM (inactive) | > 100 µM (inactive) | > 100 µM (inactive) | > 100 µM (inactive) | > 100 µM (inactive) | > 100 µM (inactive) | > 100 µM (inactive) | 84.7 µM (inactive) | > 100 µM (inactive) | > 100 µM (inactive) | > 100 µM (inactive) | 70.5 µM (inactive) | 80.9 µM (inactive) | > 100 µM (inactive) |
| COc1cc(C)c(C2NC(=O)c3ccccc3N2)cc1C (stereo not drawn) | 0.692 µM (active) | 0.125 µM (active) | 2.28 µM (inactive) | 0.234 µM (active) | 0.183 µM (active) | 0.229 µM (active) | 0.312 µM (active) | 0.59 µM (active) | – | 0.468 µM (active) | 0.75 µM (active) | 0.316 µM (active) | 0.4 µM (active) | 0.254 µM (active) | 0.313 µM (active) | 0.321 µM (active) | 0.476 µM (active) | 1.36 µM (inactive) | 0.472 µM (active) | 1.12 µM (inactive) |
| CC1CC[C@@]2(OC1)OC1CC3C4CCC5C[C@@H](OC6OC(CO)C(OC7OC(CO)C(O)C(OC8OC(CO)C(O)C(OC9OC(CO)C(O)C(O)C9O)C8O)C7OC7OC(CO)C(O)C(O)C7O)C(O)C6O)[C@H](O)C[C@]5(C)C4CC[C@]3(C)C1[C@@H]2C (stereo partly drawn) | > 80.5 µM (inactive) | > 80.5 µM (inactive) | > 80.5 µM (inactive) | > 80.5 µM (inactive) | > 80.5 µM (inactive) | > 80.5 µM (inactive) | > 80.5 µM (inactive) | > 80.5 µM (inactive) | > 80.5 µM (inactive) | > 80.5 µM (inactive) | > 80.5 µM (inactive) | > 80.5 µM (inactive) | > 80.5 µM (inactive) | – | > 80.5 µM (inactive) | > 80.5 µM (inactive) | > 80.5 µM (inactive) | > 80.5 µM (inactive) | – | > 80.5 µM (inactive) |
| CCN(CC)c1ccc2cc(C(=O)Nc3ccccn3)c(=N)oc2c1 | > 100 µM (inactive) | > 100 µM (inactive) | – | 32.1 µM (inactive) | 60.3 µM (inactive) | 43.5 µM (inactive) | > 100 µM (inactive) | > 100 µM (inactive) | > 100 µM (inactive) | 19.1 µM (inactive) | 80.2 µM (inactive) | > 100 µM (inactive) | > 100 µM (inactive) | – | > 100 µM (inactive) | 32.2 µM (inactive) | > 100 µM (inactive) | 22.9 µM (inactive) | > 100 µM (inactive) | > 100 µM (inactive) |
| CC1(C)CC[C@]2(C(=O)O)[C@H](O)C[C@]3(C)C(=CC[C@@H]4[C@@]5(C)CC[C@H](OC6OC(C(=O)O)C(O)C(O)C6O)C(C)(C)[C@@H]5CC[C@]43C)[C@@H]2C1 (stereo partly drawn) | 27.1 µM (inactive) | 95.9 µM (inactive) | – | 28.2 µM (inactive) | > 100 µM (inactive) | – | 22.2 µM (inactive) | 18.3 µM (inactive) | 20.3 µM (inactive) | 52.7 µM (inactive) | > 100 µM (inactive) | > 100 µM (inactive) | 96.4 µM (inactive) | > 100 µM (inactive) | > 100 µM (inactive) | > 100 µM (inactive) | 18.5 µM (inactive) | > 100 µM (inactive) | > 100 µM (inactive) | 78.3 µM (inactive) |
| CCOP(=O)(OCC)/C(C#N)=C/c1cnc(-c2ccccc2)[nH]1 | > 100 µM (inactive) | > 100 µM (inactive) | – | > 100 µM (inactive) | > 100 µM (inactive) | 0.0887 µM (active) | > 100 µM (inactive) | > 100 µM (inactive) | > 100 µM (inactive) | > 100 µM (inactive) | > 100 µM (inactive) | > 100 µM (inactive) | > 100 µM (inactive) | > 100 µM (inactive) | > 100 µM (inactive) | > 100 µM (inactive) | > 100 µM (inactive) | > 100 µM (inactive) | > 100 µM (inactive) | > 100 µM (inactive) |
| Nc1cc([N+](=O)[O-])ccc1C(=O)N1CCC[C@H]1CO | > 100 µM (inactive) | > 100 µM (inactive) | > 100 µM (inactive) | 64.1 µM (inactive) | > 100 µM (inactive) | > 100 µM (inactive) | > 100 µM (inactive) | > 100 µM (inactive) | > 100 µM (inactive) | > 100 µM (inactive) | – | – | > 100 µM (inactive) | > 100 µM (inactive) | > 100 µM (inactive) | > 100 µM (inactive) | > 100 µM (inactive) | – | > 100 µM (inactive) | > 100 µM (inactive) |
| OC1(C2(c3ccc(Cl)cc3)CCCC2)c2ccccc2C2=NCCN21 (stereo not drawn) | 17.5 µM (inactive) | 4.81 µM (inactive) | 15.1 µM (inactive) | 36.3 µM (inactive) | 17.7 µM (inactive) | – | 15.7 µM (inactive) | 15.3 µM (inactive) | 13.4 µM (inactive) | 16.4 µM (inactive) | 15.8 µM (inactive) | 14.2 µM (inactive) | 0.0716 µM (active) | 16.2 µM (inactive) | 10.3 µM (inactive) | 10.8 µM (inactive) | 16.8 µM (inactive) | 17.4 µM (inactive) | 12.9 µM (inactive) | 16.9 µM (inactive) |
| COc1ccc2oc(C(=O)N3CC(CCl)c4ccc([N+](=O)[O-])cc43)cc2c1 (stereo not drawn) | – | > 100 µM (inactive) | 33.2 µM (inactive) | 9.12 µM (inactive) | – | 14 µM (inactive) | 18.9 µM (inactive) | > 100 µM (inactive) | 26.1 µM (inactive) | 25.2 µM (inactive) | – | 89.9 µM (inactive) | 25.4 µM (inactive) | – | 74.6 µM (inactive) | – | 42.3 µM (inactive) | 12.4 µM (inactive) | 0.103 µM (active) | 15.8 µM (inactive) |
| O=[N+]([O-])c1cccc(CSc2nc(O)c3nc[nH]c3n2)c1 | > 100 µM (inactive) | 78.2 µM (inactive) | > 100 µM (inactive) | 87.1 µM (inactive) | > 100 µM (inactive) | – | > 100 µM (inactive) | > 100 µM (inactive) | > 100 µM (inactive) | > 100 µM (inactive) | > 100 µM (inactive) | > 100 µM (inactive) | > 100 µM (inactive) | 76.6 µM (inactive) | > 100 µM (inactive) | > 100 µM (inactive) | > 100 µM (inactive) | > 100 µM (inactive) | > 100 µM (inactive) | > 100 µM (inactive) |
| Cc1c(/C=N/NC(=S)Nc2ccccc2Cl)c(=O)n(-c2ccccc2)n1C | 44.2 µM (inactive) | 27.9 µM (inactive) | 23.4 µM (inactive) | 24 µM (inactive) | 32.7 µM (inactive) | 30.1 µM (inactive) | 30.4 µM (inactive) | 58.6 µM (inactive) | – | 32.6 µM (inactive) | > 100 µM (inactive) | 60.3 µM (inactive) | 60.4 µM (inactive) | 22.5 µM (inactive) | 38.7 µM (inactive) | 29.4 µM (inactive) | 54.2 µM (inactive) | 22.7 µM (inactive) | 40.3 µM (inactive) | 45.5 µM (inactive) |
